{"source": "patent US20240209028A1", "about": "“CNP COMPOUNDS” (priority 2022, published 2024)", "test": "PK after i.v. and s.c. administration to Göttingen minipig", "conditions": "female, in vivo, Göttingen Minipig", "method_in_brief": "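Female Göttingen minipigs (6-12 months, ~22 kg) and domestic LYD pigs (4-5 months, ~80 kg) given CNP compounds i.v. (30-60 or 15-43 nmol/kg) or s.c. neck (55-62 or 20-30 nmol/kg) via catheter/pen. EDTA plasma sampled up to 14 days, CNP and cGMP by LC-MS; non-compartmental PK, F from dose-normalized AUC s.c./i.v.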", "note": "Where two headings read alike, the source gives them in different places. Starred links: 1 amine or outer side, 2 acyl side, 3 side chain; linkers in the order of their positions; H or OH if unused. Positions of bridges follow the written chain, without caps; N, C: chain ends. Residues, ends and D or L forms follow the SMILES beside them. *: point of attachment. C18 diacid = O=C(O)CCCCCCCCCCCCCCCCC(=O)*; γGlu = O=C(O)[C@H](CCC(=O)[*:2])N[*:1]; AEEA = NCCOCCOCC(=O)O", "data": [{"smiles": "CC[C@H](C)[C@@H]1NC(=O)[C@H](CCCNC(=N)N)NC(=O)[C@H](CC(=O)O)NC(=O)[C@H](CC(C)C)NC(=O)[C@@H]2CCCN2C(=O)[C@H](CC(C)C)NC(=O)CNC(=O)[C@H](Cc2ccccc2)NC(=O)[C@@H](NC(=O)CNC(=O)[C@H](CCC(N)=O)NC(=O)[C@H](CO)NC(=O)[C@H](CC(C)C)NC(=O)CNC(=O)[C@H](CCCCN)NC(=O)[C@H](CCCCN)NC(=O)[C@H](CCC(N)=O)NC(=O)[C@H](C)NC(=O)CNC(=O)[C@H](CCCCN)NC(=O)[C@H](Cc2ccc(O)cc2)NC(=O)[C@H](CCCCN)NC(=O)[C@H](CCCNC(=N)N)NC(=O)[C@H](C)NC(=O)COCCOCCNC(=O)COCCOCCNC(=O)COCCOCCNC(=O)COCCOCCNC(=O)CC[C@H](NC(=O)CC[C@H](NC(=O)CC[C@H](NC(=O)CC[C@H](NC(=O)CC[C@H](NC(=O)CCCCCCCCCCCCCCCCC(=O)O)C(=O)O)C(=O)O)C(=O)O)C(=O)O)C(=O)O)CSSC[C@@H](C(=O)O)NC(=O)CNC(=O)[C@H](CC(C)C)NC(=O)CNC(=O)[C@H](CO)NC(=O)[C@H](CC(C)C)NC(=O)[C@H](CO)NC(=O)CNC1=O", "note": "[Compound 9407] ({C18 diacid-γGlu-γGlu-γGlu-γGlu-γGlu-AEEA-AEEA-AEEA-AEEA}-ARKYKGAQKKGLSQGCFGLPLDRIGSLSGLGC-OH; disulfide 16-32)", "values": [{"measurement": "clearance", "setting": "iv, i.v., read-out: CL (ml/hr/kg), Intravenous PK (converted)", "value": 1.2, "unit": "mL/h/kg"}, {"measurement": "half-life", "setting": "iv, i.v., read-out: T½, iv (converted)", "value": 82, "unit": "h"}, {"measurement": "bioavailability", "setting": "sc, s.c. bioavailability, read-out: F (%), Subcutaneous PK", "value": 86, "unit": "%"}, {"measurement": "half-life", "setting": "sc, s.c., read-out: T½, sc (converted)", "value": 92, "unit": "h"}]}]}
